Test results as given in PubChem BioAssay AID1918949 (Molecular Pharmacology Branch, DTP, NCI, 2023).

Test system: K24384-001-R-PDC complex spheroid viability
Experiment: Anticancer human tumor K24384-001-R-PDC patient-derived pancreatic adenocarcinoma cell line growth inhibition
Conditions: for IC50: curve of first compound; for viability, T/C: stronger effect = lower value
Excerpt: Multicellular complex tumor spheroid response to LSD1 Inhibitor Iadademstat in combination with a variety of drugs and investigational agents in selected tumor cell lines
The current study was undertaken to assess response to LSD1 inhibitors in combination with standard-of-care drugs and investigational agents in solid tumor complex spheroid models as well as in the K-562 leukemia. Complex spheroids include a stromal component modeled by human endothelial cells (HUVEC) and fibroblasts modeled by human mesenchymal stem cells (MSCs). The concentration ranges selected for each drug and investigational agent were based upon clinically achievable concentrations if the clinical Cmax of the agent was known.
Compounds. The drugs and investigational agents used in this study are listed on Table 1. All of the agents used, including staurosporine (NSC755774) and gemcitabine (NSC613327), were obtained from the Developmental Therapeutics Program, NCI. FDA-approved anticancer drugs are available from the NCI at http://dtp.nci.nih.gov/branches/dscb/oncology_drugset_explanation.html. Drugs and investigational agents were >95% pure by proton nuclear magnetic resonance (NMR) and liquid chromatography/mass spectrometry (LC/MS). Stock solutions were prepared at 400x in DMSO, stored at -70 degrees C, and diluted in fresh medium prior to their use. The final concentration of DMSO in cell culture wells never exceeded 0.25% (v/v). The FDA-approved anticancer drug set is available from the Developmental Therapeutics Program at https://dtp.cancer.gov/organization/dscb/obtaining/available_plates.htm. All drugs and investigational agents were tested over a range starting from a high concentration at or near the clinical Cmax and decreasing in half-log increments. If the clinical Cmax for an agent had not been determined, the highest concentration tested was 10 microM.
Cell Lines. The patient-derived cancer cell (PDC) lines: 292921-168-R-J2-PDC, K24384-001-R-PDC, and 521955-158-R2-J5-PDC pancreatic carcinomas, 556581-035-R-J1 ovarian carcinoma, 324938-238-R-J1-PDC, 855422-203-R-J1-PDC and 883617-216-R-J1-PDC urothelial bladder carcinomas, 743489-274-T-PDC renal cell carcinoma, 138582-R-J1 Merkel cell tumor, K60290-347-R-J1 and K57222-313-R-J1-PDC glioblastomas, 653999-131-R-J2-PDC, LG0703-F948-PDC, and 349418-098-R-PDC non-small cell lung carcinomas, 885512-296-R-J2-PDC, 171881-019-R-J1-PDC breast carcinomas and 186277-243-T-J2-PDC and 233499-124-R-J2-PDC colon carcinomas were obtained from the NCI Patient-Derived Models Repository (PDMR, https://pdmr.cancer.gov). The established cell lines NCI/ADR-RES (RRID:CVCL_14520 and OVCAR-5 (RRID:CVCL_1628) ovarian carcinomas, 786-O (RRID:CVCL_1051) and A498 (RRID:CVCL_A498) renal cell carcinoma, NCI-H211 (ATCC, cat. CRL-5824; RRID:CVCL_1529), NCI-H196 (ATCC, cat. CRL-5823, RRID:CVCL_1509), SW 1271 (ATCC, cat. CRL-2177, RRID:CVCL_1716) and NCI-H1876 (ATCC, cat. CRL-5902, RRID:CVCL_1503) small cell lung carcinomas, MDA-MB-231 (RRID:CVCL_0062) and MDA-MB-468 (RRID:CVCL_0419)breast carcinomas (10-12). Pooled donor human umbilical vein endothelial cells (HUVEC, Lonza, cat. CC-2519) and human mesenchymal stem cells (hMSC, Lonza, cat. PT-2501) were purchased from Lonza (Walkersville, MD).
Cell Culture. All cells were maintained in an incubator at 37 degrees C and 5% CO2 with 95% humidity. The PDC lines were cultured according to standard operating procedures established by the NCI PDMR (https://pdmr.cancer.gov). Briefly all PDCs were thawed and cultured in Matrigel-coated flasks prepared with a working solution of 1X Ham's F-12 nutrient mix, without supplementation (Invitrogen, Waltham, MA, cat. 11765054), 100 U/mL penicillin-streptomycin (Invitrogen, cat. 15140122), and 2.5% Matrigel (Corning Inc., Corning, NY, cat. 354248) for the first three passages. […]

[1] = second compound 0.1 µM, first compound 0.000949 µM
[2] = second compound 0.1 µM, first compound 0.003 µM
[3] = second compound 0.1 µM, first compound 0.00949 µM
[4] = second compound 0.1 µM, first compound 0.03 µM
[5] = second compound 0.1 µM, first compound 0.0949 µM
[6] = second compound 0.1 µM, first compound 0.3 µM
[7] = second compound 0.316 µM, first compound 0.000949 µM
[8] = second compound 0.316 µM, first compound 0.003 µM
[9] = second compound 0.316 µM, first compound 0.00949 µM
[10] = second compound 0.316 µM, first compound 0.03 µM
[11] = second compound 0.316 µM, first compound 0.0949 µM
[12] = second compound 0.316 µM, first compound 0.3 µM
[13] = second compound 1 µM, first compound 0.000949 µM
[14] = second compound 1 µM, first compound 0.003 µM
[15] = second compound 1 µM, first compound 0.00949 µM
[16] = second compound 1 µM, first compound 0.03 µM
[17] = second compound 1 µM, first compound 0.0949 µM
[18] = second compound 1 µM, first compound 0.3 µM
[19] = second compound 3.16 µM, first compound 0.000949 µM
[20] = second compound 3.16 µM, first compound 0.003 µM
[21] = second compound 3.16 µM, first compound 0.00949 µM
[22] = second compound 3.16 µM, first compound 0.03 µM
[23] = second compound 3.16 µM, first compound 0.0949 µM
[24] = second compound 3.16 µM, first compound 0.3 µM
[25] = second compound 10 µM, first compound 0.000949 µM
[26] = second compound 10 µM, first compound 0.003 µM
[27] = second compound 10 µM, first compound 0.00949 µM
[28] = second compound 10 µM, first compound 0.03 µM
[29] = second compound 10 µM, first compound 0.0949 µM
[30] = second compound 10 µM, first compound 0.3 µM
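Note: spheroids exposed to agents for seven days before luminescence viability reading.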
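Throughout, for viability, T/C: 100% = DMSO vehicle control viability.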

Compound	IC50 (second compound 0.1 µM) [nM]	IC50 (second compound 0.316 µM) [nM]	IC50 (second compound 1 µM) [nM]	IC50 (second compound 3.16 µM) [nM]	IC50 (second compound 10 µM) [nM]	viability, T/C [1] [%]	viability, T/C [2] [%]	viability, T/C [3] [%]	viability, T/C [4] [%]	viability, T/C [5] [%]	viability, T/C [6] [%]	viability, T/C [7] [%]	viability, T/C [8] [%]	viability, T/C [9] [%]	viability, T/C [10] [%]	viability, T/C [11] [%]	viability, T/C [12] [%]	viability, T/C [13] [%]	viability, T/C [14] [%]	viability, T/C [15] [%]	further results
CCc1c2c(nc3ccc(O)cc13)-c1cc3c(c(=O)n1C2)COC(=O)[C@]3(O)CC + NC1CC1c1ccc(-c2cccc(O)c2)cc1	< 0.949	< 0.949	< 0.949	< 0.949	< 0.949	38.8	32.7	28.5	8.07	5.66	4.56	34.2	30.9	31.5	10.9	8.49	5.16	36.8	34.2	26.4	viability, T/C [16]: 7.42%; viability, T/C [17]: 4.74%; viability, T/C [18]: 4.43%; viability, T/C [19]: 37.1%; viability, T/C [20]: 33.7%; viability, T/C [21]: 25.8%; viability, T/C [22]: 7.05%; viability, T/C [23]: 4.62%; viability, T/C [24]: 4.99%; viability, T/C [25]: 43.4%; viability, T/C [26]: 34.2%; viability, T/C [27]: 24%; viability, T/C [28]: 5.88%; viability, T/C [29]: 5.79%; viability, T/C [30]: 4.12%
Nc1ccn(C2OC(CO)C(O)C2(F)F)c(=O)n1 (stereo not given) + NC1CC1c1ccc(-c2cccc(O)c2)cc1	28.3	43	38.1	46	90.9	82.5	72.9	63.4	48	41.9	37.2	87.9	73.4	68	49.5	44.9	35.8	75	84.5	63.6	viability, T/C [16]: 53.2%; viability, T/C [17]: 41.1%; viability, T/C [18]: 32%; viability, T/C [19]: 98.5%; viability, T/C [20]: 81.2%; viability, T/C [21]: 67.1%; viability, T/C [22]: 56%; viability, T/C [23]: 42.1%; viability, T/C [24]: 31.5%; viability, T/C [25]: 103%; viability, T/C [26]: 99%; viability, T/C [27]: 95.5%; viability, T/C [28]: 69.3%; viability, T/C [29]: 51.3%; viability, T/C [30]: 40.2%
